Assay results: EP0355612B1, “Furylthiazole derivatives, processes for the preparation thereof and pharmaceutical composition comprising the same” (FUJISAWA PHARMACEUTICAL CO., LTD., priority 1988, dated 1990)

Key:
[1] = target: T1, H₂-receptor (Cavia porcellus, UniProt P47747); assay: Test B: H₂-receptor antagonism in isolated guinea-pig atrium; type: cell-based; details: test compound 1 x 10⁻⁶ g/ml; histamine (1 x 10⁻⁶ g/ml)-induced increase in beating rate, before and 30 minutes after dosing
T1 construct: from tissue; host or cells: isolated guinea-pig atrial strip
Experimental: Test B (H₂-receptor antagonism in isolated guinea-pig atrium):
The atrial strip isolated from guinea-pig was suspended under an initial tension 0.3 to 0.6 g in an organ bath containing Tyrode solution at 30°C, aerated 95%O₂-5%CO₂ gas. The beating rate and amplitude of contraction of the atrium were recorded by means of a transducer and a polygraph. Histamine (1 x 10⁻⁶ g/ml) was added to the bathing fluid and the increase in beating rate after dosing was measured. Addition of test compounds (1 x 10⁻⁶ g/ml) was made 30 minutes after washing out histamine. Inhibitory effect of test compound was calculated by comparing histamine-induced increases in beating rate before and 30 minutes after dosing with the test compounds.

[2] = test system: male Sprague-Dawley rats; assay: Test C: Inhibition of stress ulcer (restraint and water immersion); type: in vivo; details: mean area of ulcers vs control animals; test compound 32 mg/kg orally; seven hours immobilized in water bath at 22°C
Experimental: Test C (Inhibition of stress ulcer):
Five male Sprague-Dawley rats, aged 7 weeks and weighing about 200 g were used per group for the study on stress ulcer after the fast for 24 hours. Each animal was immobilized in a restrain cage and immersed to a level of the xiphoid in a water bath kept 22°C. Each of the test compounds (32 mg/kg) suspended in 0.1% methylcellulose solution was administered orally just before the immobilization. Seven hours later, the animals were sacrificed and their stomachs were removed. The stomach was then fixed with 2% formalin. The area of ulcers was measured for each animal, and percentage of inhibition was calculated by comparing the mean area of ulcers (mm²) in the test animals with that in the control animals.

[3] = test system: lumen perfused stomach in anesthetized rats; assay: Test D: Gastric secretion from lumen perfused stomach in anesthetized rats (histamine-stimulated); type: in vivo, Sprague-Dawley rats; details: maximal inhibition of acid output; histamine 3 mg/kg/hr intravenous infusion; test compound 1 mg/kg intravenously
Experimental: Test D (Gastric secretion from lumen perfused stomach in anesthetized rats):
Male Sprague-Dawley rats weighing about 250 g were used. Rats were deprived of food but allowed free access to water for 24 hours. The animals were anesthetized with 1.25 g/kg urethane intraperitoneally. The abdomen was opened and the gastric lumen was perfused with saline throughout the experiment. The perfusate was titrated by an autotitrator with 25 mM sodium hydroxide as a titrant. Gastric secretion was stimulated by intravenous infusion with histamine (3 mg/kg/hr). After reaching plateau, test compound (1 mg/kg) was given intravenously. Drug effect was expressed as maximal inhibition by acid output.

T1 sequence (P47747 whole entry): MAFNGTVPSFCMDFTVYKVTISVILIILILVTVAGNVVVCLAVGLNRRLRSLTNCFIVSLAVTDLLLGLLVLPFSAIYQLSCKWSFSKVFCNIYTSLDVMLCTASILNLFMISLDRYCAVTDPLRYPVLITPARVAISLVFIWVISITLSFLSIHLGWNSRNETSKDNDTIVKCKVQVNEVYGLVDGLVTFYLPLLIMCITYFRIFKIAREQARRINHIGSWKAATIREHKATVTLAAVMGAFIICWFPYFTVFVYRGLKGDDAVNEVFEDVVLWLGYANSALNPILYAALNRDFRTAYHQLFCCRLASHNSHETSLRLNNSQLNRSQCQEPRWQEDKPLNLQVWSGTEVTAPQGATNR

CNC(=NC#N)NCc1ccc(-c2csc(N=C(N)N)n2)o1 [Test Compound (b), 4-[5-(2-Cyano-3-methylguanidino)methylfuran-2-yl]-2-(diaminomethyleneamino)thiazole]
H₂ Antagonism (%) [1]: 90.7%

CNC(=O)NCc1ccc(-c2csc(N=C(N)N)n2)o1 [Test Compound (c)]
H₂ Antagonism (%) [1]: 89.1%

NC(N)=Nc1nc(-c2ccc(CC(N)=NS(N)(=O)=O)o2)cs1 [Test Compound (d), 4-[5-(2-Amino-2-aminosulfonyliminoethyl)furan-2-yl]-2-(diaminomethyleneamino)thiazole]
Inhibition (%) [2]: 86.6% | Inhibition (%) [3]: 99%
